Source: US20220132847A1, “CINNOLINIUM COMPOUNDS FOR USE IN A METHOD OF CONTROLLING UNWANTED PLANT GROWTH” (SYNGENTA CROP PROTECTION AG, priority 2019, published 2022)

Key:
Assay in all cases: Post-emergence efficacy, glasshouse
Format in all cases: in vivo
[1] = system: Amaranthus palmeri (AMAPA); conditions: Amaranthus palmeri, post-emergence, 312 h, evaluated after 13 days, 100=total damage to plant, 0=no damage to plant, read-out: Control of weed species after post-emergence application, AMAPA; for pest or weed control at 1000 g/ha: Application Rate 1000 g/Ha; for pest or weed control at 500 g/ha: Application Rate 500 g/Ha
Summary of the method: (§1)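 Post-emergence spray on 14-day-old pot plants of the formulated compound (acetone/IF50, 50 g/l stock diluted in water with 0.25% or 1% Empicol ESC70 plus 1% ammonium sulphate). Glasshouse at 24/16° C day/night, 14 h light, 65% humidity; visual damage rated after 13 days, 0 none to 100 total.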

[2] = system: Chenopodium album (CHEAL); conditions: Chenopodium album, post-emergence, 312 h, evaluated after 13 days, 100=total damage to plant, 0=no damage to plant, read-out: Control of weed species after post-emergence application, CHEAL; for pest or weed control at 1000 g/ha: Application Rate 1000 g/Ha; for pest or weed control at 500 g/ha: Application Rate 500 g/Ha
Summary of the method: as §1

[3] = system: Digitaria sanguinalis (DIGSA); conditions: Digitaria sanguinalis, post-emergence, 312 h, evaluated after 13 days, 100=total damage to plant, 0=no damage to plant, read-out: Control of weed species after post-emergence application, DIGSA; for pest or weed control at 1000 g/ha: Application Rate 1000 g/Ha; for pest or weed control at 500 g/ha: Application Rate 500 g/Ha
Summary of the method: as §1

[4] = system: Echinochloa crus-galli (ECHCG); conditions: Echinochloa crus-galli, post-emergence, 312 h, evaluated after 13 days, 100=total damage to plant, 0=no damage to plant, read-out: Control of weed species after post-emergence application, ECHCG; for pest or weed control at 1000 g/ha: Application Rate 1000 g/Ha; for pest or weed control at 500 g/ha: Application Rate 500 g/Ha
Summary of the method: as §1

Eleusine indica (ELEIN) = conditions: Eleusine indica, post-emergence, 312 h, evaluated after 13 days, 100=total damage to plant, 0=no damage to plant, read-out: Control of weed species after post-emergence application, ELEIN; for pest or weed control at 1000 g/ha: Application Rate 1000 g/Ha; for pest or weed control at 500 g/ha: Application Rate 500 g/Ha
Summary of the method: as §1

[5] = system: Euphorbia heterophylla (EPHHL); conditions: Euphorbia heterophylla, post-emergence, 312 h, evaluated after 13 days, 100=total damage to plant, 0=no damage to plant, read-out: Control of weed species after post-emergence application, EPHHL; for pest or weed control at 1000 g/ha: Application Rate 1000 g/Ha; for pest or weed control at 500 g/ha: Application Rate 500 g/Ha
Summary of the method: as §1

[6] = system: Ipomoea hederacea (IPOHE); conditions: Ipomoea hederacea, post-emergence, 312 h, evaluated after 13 days, 100=total damage to plant, 0=no damage to plant, read-out: Control of weed species after post-emergence application, IPOHE; for pest or weed control at 1000 g/ha: Application Rate 1000 g/Ha; for pest or weed control at 500 g/ha: Application Rate 500 g/Ha
Summary of the method: as §1

Lolium perenne (LOLPE) = conditions: Lolium perenne, post-emergence, 312 h, evaluated after 13 days, 100=total damage to plant, 0=no damage to plant, read-out: Control of weed species after post-emergence application, LOLPE; for pest or weed control at 1000 g/ha: Application Rate 1000 g/Ha; for pest or weed control at 500 g/ha: Application Rate 500 g/Ha
Summary of the method: as §1

Setaria faberi (SETFA) = conditions: Setaria faberi, post-emergence, 312 h, evaluated after 13 days, 100=total damage to plant, 0=no damage to plant, read-out: Control of weed species after post-emergence application, SETFA; for pest or weed control at 1000 g/ha: Application Rate 1000 g/Ha; for pest or weed control at 500 g/ha: Application Rate 500 g/Ha
Summary of the method: as §1

Compound | pest or weed control at 1000 g/ha [1] [%] | pest or weed control at 1000 g/ha [2] [%] | pest or weed control at 1000 g/ha [3] [%] | pest or weed control at 1000 g/ha [4] [%] | pest or weed control at 1000 g/ha (Eleusine indica (ELEIN)) [%] | pest or weed control at 1000 g/ha [5] [%] | pest or weed control at 1000 g/ha [6] [%] | pest or weed control at 1000 g/ha (Lolium perenne (LOLPE)) [%] | pest or weed control at 1000 g/ha (Setaria faberi (SETFA)) [%] | pest or weed control at 500 g/ha [1] [%] | pest or weed control at 500 g/ha [2] [%] | pest or weed control at 500 g/ha [3] [%] | pest or weed control at 500 g/ha [4] [%] | pest or weed control at 500 g/ha (Eleusine indica (ELEIN)) [%] | pest or weed control at 500 g/ha [5] [%] | pest or weed control at 500 g/ha [6] [%] | pest or weed control at 500 g/ha (Lolium perenne (LOLPE)) [%] | pest or weed control at 500 g/ha (Setaria faberi (SETFA)) [%]
CCCP(=O)([O-])c1c[n+](C)nc2ccccc12 [Compound A49] | 100 | 90 | 100 | 70 | 100 | 100 | 90 | 30 | 90 | – | – | – | – | – | – | – | – | –
C[n+]1cc(CP(=O)([O-])O)c2ccccc2n1 [Compound A50, (2-methylcinnolin-2-ium-4-yl)methylphosphonic acid] | 60 | 30 | 20 | 20 | 30 | 20 | 20 | 0 | 10 | – | – | – | – | – | – | – | – | –
CCOC(=O)Cc1c[n+](C)nc2ccccc12 [Compound A52, ethyl 2-(2-methylcinnolin-2-ium-4-yl)acetate 2,2,2-trifluoroacetate] | – | – | – | – | – | – | – | – | – | 50 | 60 | 30 | 10 | 70 | 40 | 20 | 10 | 10
COP(=O)(O)Cc1c[n+](C)nc2ccccc12 [Compound A53] | 100 | 70 | 90 | 80 | 100 | 100 | 100 | 30 | 90 | – | – | – | – | – | – | – | – | –
CCOP(=O)(O)CCc1c[n+](C)nc2ccccc12 [Compound A54, ethoxy-[2-(2-methylcinnolin-2-ium-4-yl)ethyl]phosphinic acid 2,2,2-trifluoroacetate] | – | – | – | – | – | – | – | – | – | 30 | 20 | 40 | 30 | 30 | 80 | 20 | 20 | 30
C[n+]1cc(CCC(=O)O)c2ccccc2n1 [Compound A55, 3-(2-methylcinnolin-2-ium-4-yl)propanoic acid chloride] | 90 | 100 | 100 | 90 | 100 | 70 | 70 | 20 | 30 | – | – | – | – | – | – | – | – | –
C[n+]1cc(CCC(=O)O)c2ccccc2n1 [Compound A56, 3-(2-methylcinnolin-2-ium-4-yl)propanoic acid 2,2,2-trifluoroacetate] | – | – | – | – | – | – | – | – | – | 100 | 90 | 100 | 70 | 70 | 40 | 30 | 10 | 60
C[n+]1cc(SCC(=O)O)c2ccccc2n1 [Compound A57, 2-(2-methylcinnolin-2-ium-4-yl)sulfanylacetic acid chloride] | 40 | 40 | 30 | 10 | 40 | 20 | 10 | 10 | 30 | – | – | – | – | – | – | – | – | –
C[n+]1cc(OCC(=O)O)c2ccccc2n1 [Compound A58] | 80 | 70 | 70 | 10 | 30 | 20 | 20 | 0 | 60 | – | – | – | – | – | – | – | – | –
C[n+]1nc2ccccc2c(C(=O)[O-])c1-c1ccccc1 [Compound A60] | 100 | 100 | 90 | 50 | 100 | 100 | 100 | 40 | 70 | – | – | – | – | – | – | – | – | –
Cc1c(C(=O)[O-])c2ccccc2n[n+]1C [Compound A61, 2,3-dimethylcinnolin-2-ium-4-carboxylate] | 100 | 100 | 70 | 50 | 90 | 70 | 100 | 10 | 40 | – | – | – | – | – | – | – | – | –
COP(=O)([O-])c1c[n+](CC(=O)NS(C)(=O)=O)nc2ccccc12 [Compound A63, [2-[2-(methanesulfonamido)-2-oxo-ethyl]cinnolin-2-ium-4-yl]-methoxy-phosphinate] | 30 | 30 | 70 | 50 | 50 | 70 | 30 | 10 | 60 | – | – | – | – | – | – | – | – | –
CC[n+]1cc(P(=O)([O-])OC)c2ccccc2n1 [Compound A65] | 90 | 90 | 90 | 50 | 80 | 100 | 70 | 40 | 80 | – | – | – | – | – | – | – | – | –
CC[n+]1cc(P(=O)([O-])O)c2ccccc2n1 [Compound A66] | 40 | 30 | 90 | 60 | 70 | 80 | 60 | 10 | 70 | – | – | – | – | – | – | – | – | –
